Data reported in ChEMBL document CHEMBL1155654, “Acylated flavonol glycosides from the flower of Inula britannica” (J Nat Prod, 2000).
≈ marks a conversion by molar mass, not a printed value. Calls of active or inactive are those of the source. No cut-off for these calls is given here.

Experiments:
[1] = test system: Radical scavenging activity; assay: Antioxidant activity assessed as DPPH free radical scavenging activity; assay type: functional
HL-60 [2] = assay: Antioxidant activity in human HL60 cells assessed as reduction of cytochrome-c […]; assay type: functional, cell-based
HL-60 [3] = assay: Antioxidant activity in human HL60 cells assessed as inhibition of TPA-induced free radical formation; assay type: functional, cell-based

Structure (SMILES)	IC50 [1] [µg/mL]	IC50 (HL-60 [2]) [µg/mL]	Activity (HL-60 [3])
COc1c(O[C@@H]2O[C@H](COC(=O)C(C)C)[C@@H](O)[C@H](O)[C@H]2O)cc2oc(-c3ccc(O)c(O)c3)c(O)c(=O)c2c1O	14.3 (≈ 25.3 µM)	10.6 (≈ 18.8 µM)	Active
COc1c(O[C@@H]2O[C@H](COC(=O)CC(C)C)[C@@H](O)[C@H](O)[C@H]2O)cc2oc(-c3ccc(O)c(O)c3)c(O)c(=O)c2c1O	14.3 (≈ 24.7 µM)	11.7 (≈ 20.2 µM)	Active
CCC(C)C(=O)OC[C@H]1O[C@@H](Oc2cc3oc(-c4ccc(O)c(O)c4)c(O)c(=O)c3c(O)c2OC)[C@H](O)[C@@H](O)[C@@H]1O (some centres undefined)	23.5 (≈ 40.6 µM)	11.2 (≈ 19.4 µM)	Active
O=c1c(O[C@@H]2O[C@H](CO)[C@@H](O)[C@H](O)[C@H]2O)c(-c2ccc(O)cc2)oc2cc(O)cc(O)c12 [ASTRAGALIN]	> 100	> 50	–
COc1c(O)cc2oc(-c3ccc(O)c(O)c3)c(OC)c(=O)c2c1O [AXILLARIN]	12.4 (≈ 35.8 µM)	2.9 (≈ 8.37 µM)	Active
O=C(O)c1cc(O)c(O)c(O)c1 [GALLIC ACID]	3.7 (≈ 21.7 µM)	3.2 (≈ 18.8 µM)	–
COc1c(O[C@@H]2O[C@H](CO)[C@@H](O)[C@H](O)[C@H]2O)cc2oc(-c3ccc(O)cc3)cc(=O)c2c1O [HISPIDULOSIDE]	> 100	> 50	–
O=c1c(O)c(-c2ccc(O)cc2)oc2cc(O)cc(O)c12 [KAEMPFEROL]	74.4 (≈ 260 µM)	10 (≈ 34.9 µM)	–
O=c1cc(-c2ccc(O)c(O)c2)oc2cc(O)cc(O)c12 [LUTEOLIN]	7.2 (≈ 25.2 µM)	12.1 (≈ 42.3 µM)	Active
COc1c(O)cc2oc(-c3ccc(O)c(O)c3)c(O)c(=O)c2c1O [PATULETIN]	9 (≈ 27.1 µM)	10.1 (≈ 30.4 µM)	Active
COc1c(O[C@@H]2O[C@H](CO)[C@@H](O)[C@H](O)[C@H]2O)cc2oc(-c3ccc(O)c(O)c3)c(O)c(=O)c2c1O [PATULITRIN]	10.3 (≈ 20.8 µM)	8.1 (≈ 16.4 µM)	Active
